According to US20230135671A1, “USE OF BIOMARKERS IN THE TREATMENT OF FIBROTIC CONDITIONS” (Boehringer Ingelheim International GmbH, priority 2020, published 2023):

Key:
[1] = clinical trials (i.a. CAPACITY and ASCEND); cited from earlier work
[2] = tested on: 14 Nintedanib-responsive genes; assay: Gene set variation analysis (GSVA) of the 14-gene set, INMARK trial, IPF patients; format: in vivo, human; details: V5 (12 weeks) vs V2, 150 mg b.i.d., p = 1.35E-05, no significant change with Placebo
Text: (§1) Gene set variance analysis (GSVA): The Bioconductor package Gene Set Variance Analysis version 1.3.2 was applied to score each sample individually for the activity of the 14 genes (LTF, CEACAM6, CTSG, OLFM4, MMP8, CEACAM8, DEFA4, OLR1, SHISA4, ABCA13, EMID1, LMOD1, MPO, and PRTN3). The GSVA function was executed with an expression matrix of the log2 Transcripts Per Million (TPM) with a pseudocount of 0.01 added to each value, the list of 14 genes, and the parameter mx.diff set to true. Statistical differences between the GSVA scores between the different treatment groups were tested using a simple linear model and moderated t-statistics computed by the limma package using an empirical Bayes shrinkage method (Law et al., Genome Biol. 2014 Feb 3;15(2):R29.). Identification of genes altered upon Nintedanib treatment in patients with IPF

[3] = tested on: protein-coding genes in whole blood; assay: Whole-transcriptome RNA sequencing, differentially expressed genes, INMARK trial, IPF patients; format: in vivo, human
Experimental: Blood was sampled into PAXgene RNA tubes (PreAnalytix) and RNA was extracted using the PAXgene Blood RNA kit. Quantity of total RNA was determined by direct absorbance measurement at 260 nm using a spectrophotometer. RNA sequencing libraries were prepared using the Illumina TruSeq Stranded Total RNA Library Prep Kit with Ribo-Zero Globin. Briefly, following removal of ribosomal RNA and globin-encoding mRNA, cleaved RNA fragments were reversely transcribed into first strand cDNA using reverse transcriptase and random primers followed by second strand cDNA synthesis using DNA Polymerase I and RNase H. Strand origin was kept by using Uracil instead of Thymin in the nucleotide mix for […] cDNA synthesis. Following 3′-adenylation and index adapter ligation, cDNA products were purified and enriched by PCR to create the final cDNA library. Library quantity was determined using the Quant-it Pico Green dsDNA reagent and quality was checked by analyzing cDNA fragment size using an Agilent Bioanalyzer 2100 device. Following library dilution to 5 nM, samples were pooled for cluster generation. […]
Quality control: The raw data (single-end read sequences of the captured cDNA fragments) obtained for each sample were assessed for quality using FASTQC v0.11.2. For a successful gene expression analysis of a sample, approximately 50 million reads were required. Reads were mapped to the human reference genome hg38 (GRCh38 Ensembl v. 84) using STAR v2.5.2a. The mapped reads were assessed using RNA-SeQC v1.1.8, whereby mapping statistics (e.g. unique mapping rate, number of detected genes, proportion of reads mapping to protein coding genes) provided the final criteria to decide on usability of the data.
Gene expression intensities were represented as either read counts or TPM values and calculated based on Ensembl v84 gene annotations using subread featureCounts and RSEM version 1.2.31 respectively. Further steps included the use of bamUtil version 1.0.11 and samtools version 1.1 for intermediate calculations such as indexing of bam-files and duplicate read marking. […]

[4] = tested on: 14 Nintedanib-responsive genes; assay: Whole blood RNA-sequencing of the 14 genes, SENSCIS trial, SSc-ILD patients; format: in vivo, human; details: 24 weeks (V70) and, in some instances, 52 weeks (V90), not following Placebo
Experimental: Blood was sampled into PAXgene RNA tubes (PreAnalytix) and RNA was extracted using the PAXgene Blood RNA kit. Quantity of total RNA was determined by direct absorbance measurement at 260 nm using a spectrophotometer. RNA sequencing libraries were prepared using the Illumina TruSeq Stranded Total RNA Library Prep Kit with Ribo-Zero Globin. […] Library quantity was determined using the Quant-it Pico Green dsDNA reagent and quality was checked by analyzing cDNA fragment size using an Agilent Bioanalyzer 2100 device. […]
Normalization factors to scale the samples based on the raw library sizes were calculated using the weighted trimmed mean of M-values (TMM) method using the default parameters of edgeR’s calcNormFactors function (Robinson and Oshlack, Genome Biol. 2010;11(3):R25.). After these pre-processing steps, the log2 counts per million along with associated weights for each observation were then calculated based on the normalized library sizes from the previous step using limma’s voom function (Law et al., Genome Biol. 2014 Feb 3;15(2):R29.). […] Estimates for the mean log2 fold change between follow-up visit at week 12 (wk12) and baseline (bl) in each treatment arm was calculated as
Following identification of the 14 Nintedanib-responsive genes in the INMARK trial in the context of IPF, expression of these genes was assessed in two additional clinical trials. […]

[5] = tested on: 14 Nintedanib-responsive genes; assay: GSVA of the 14-gene set, SENSCIS trial, SSc-ILD patients; format: in vivo, human; details: at both visits (24 and 52 weeks), no significant change with Placebo
Text: as §1
Following identification of the 14 Nintedanib-responsive genes in the INMARK trial in the context of IPF, expression of these genes was assessed in two additional clinical trials. […] In both of these trials, whole blood samples were prospectively collected and the expression of the 14 said genes was retrospectively analyzed by whole-transcriptome RNA-sequencing. […] Similar effects were observed when the fold changes in expression were calculated in a per-patient fashion (FIG. 8).

[6] = tested on: normal human lung fibroblasts; details: in vitro; cited from earlier work
[7] = tested on: lung fibroblasts from patients with IPF; details: cited from earlier work
[8] = tested on: primary human lung fibroblasts from IPF patients; details: cited from earlier work
mouse models of IPF = details: cited from earlier work
IPF patients = details: multiple clinical trials; cited from earlier work
[9] = adj. p-value <0.05, baseline vs week 12

SMILES	decline of the forced vital capacity (FVC) lung function [1]	change in GSVA score of the 14-gene set [2]	number of significantly changed genes that were downregulated [3, 9]	number of significantly changed genes that were upregulated [3, 9]	number of protein-coding genes with significant differences in expression pre- vs post-treatment ([3]; adj. p-value <0.05, baseline vs week 12, 150 mg b.i.d.)	expression of most of the 14 genes [4]	change in GSVA score of the 14-gene set [5]	PDGFR-a and-β activation and proliferation of normal human lung fibroblasts [6]	PDGF-or FGF-2-stimulated migration of lung fibroblasts [7]	TGF-β-induced fibroblast to myofibroblast transformation [8]	total lung collagen (mouse models of IPF; IPF mouse models)	lymphocyte and neutrophil counts in the bronchoalveolar lavage fluid (mouse models of IPF; two different mouse models of IPF)	annual loss of lung function (IPF patients)
Cc1ccc(=O)n(-c2ccccc2)c1 [Pirfenidone, 5-methyl-1-phenyl-2(1H)-pyridone]	efficacy in reducing	–	–	–	–	–	–	–	–	–	–	–	–
COC(=O)c1ccc2c(c1)NC(=O)/C2=C(\Nc1ccc(N(C)C(=O)CN2CCN(C)CC2)cc1)c1ccccc1 [Nintedanib, 3-Z-[1-(4-(N-((4-methyl-piperazin-1-yl)-methylcarbonyl)-N-methyl-amino)-anilino)-1-phenyl-methylene]-6-methoxycarbonyl-2-indolinone]	–	highly significant reduction	18	one	19	downregulated	significant reduction	inhibit	attenuated	inhibited	significant reductions	significant reductions	reduce
